Assay results: the supplement of paper PMC8882468
± gives the standard deviation of the averaged measurements.

Assays:
Test in all cases: CTG-3D luminescence at 96 h relative to day-0 seeding control (ratio to day 0); higher = more growth / less cytotoxicity; PDxO 3D drug screen, 96 h, CTG-3D normalised to day-0 seeding control.
[1] = tested on: HCI-023 (organoid from a triple-negative breast cancer xenograft)
[2] = tested on: MDA-MB-231
[3] = tested on: HCI-017.E2 (organoid from an ER-positive breast cancer xenograft)
[4] = tested on: HCI-002 (organoid from a triple-negative breast cancer xenograft)
[5] = tested on: HCI-025 (organoid from a breast cancer xenograft)
[6] = tested on: HCI-015 (organoid from a triple-negative breast cancer xenograft)

CC(=O)O[C@H]1C(=O)[C@@]2(C)[C@H]([C@H](OC(=O)c3ccccc3)[C@]3(O)C[C@H](OC(=O)[C@H](O)[C@@H](NC(=O)c4ccccc4)c4ccccc4)C(C)=C1C3(C)C)[C@]1(OC(C)=O)CO[C@@H]1C[C@@H]2O [paclitaxel]
CTG-3D luminescence at 96 h
Conditions	12.5 pM	0.00025 µM	0.005 µM	0.1 µM	1 µM	10 µM	100 µM	625 fM
[1], days in culture: 111	1.34	1.27	0.476	0.484	0.433	0.474	0.492	1.58
[1], days in culture: 128	1.36 ± 0.2	1.38 ± 0.28	0.502 ± 0.022	0.609 ± 0.022	0.483 ± 0.047	0.786 ± 0.062	0.605 ± 0.092	1.41 ± 0.51
[3], days in culture: 85	2.33	1.88	1.23	0.935	1.09	1.04	0.81	1.92
[4], days in culture: 62	2.36	2.52	1.34	0.186	0.146	0.236	0.316	2.73
[4], days in culture: 82	3.27	3.2	0.859	0.217	0.193	0.224	0.174	2.8
[4], days in culture: 91	3.82	3.68	1.54	0.26	0.19	0.258	0.36	4.44
[4], days in culture: 191	2.76	2.96	1.17	0.23	0.192	0.252	0.474	2.61
[4], days in culture: 209	2.24	2.21	1.2	0.194	0.195	0.158	0.174	2.26
[4], days in culture: 227	5	5.22	3	0.418	0.279	0.365	0.464	5
[5], days in culture: 172	1.17	0.343	0.553	0.314	0.362	0.295	0.584	0.698
[5], days in culture: 209	2.09	2.2	1.75	0.281	0.353	0.301	0.767	2
[5], days in culture: 218	1.85	2.18	1.43	0.199	0.168	0.213	0.507	1.92
[6], days in culture: 172	1.71	0.614	1.22	0.629	0.689	0.702	0.612	1.2
[6], days in culture: 191	1.87	1.47	1.01	0.626	0.566	0.463	0.334	1.82
[6], days in culture: 218	1.85	1.53	0.801	0.428	0.505	0.46	0.39	1.86

CTG-3D luminescence at 96 h
Conditions	12.5 pM	0.00025 µM	0.005 µM	0.1 µM	1 µM	10 µM	100 µM	625 fM
[2]	3.73 ± 1.2	3.45 ± 1.2	2.71 ± 0.77	2.03 ± 0.52	2 ± 0.56	2.42 ± 0.61	1.09 ± 0.29	3.85 ± 1.1
[3]	1.06 ± 0.072	1.2 ± 0.14	1.2 ± 0.13	1.2 ± 0.18	1.17 ± 0.17	1.23 ± 0.068	1.3 ± 0.0093	1.35 ± 0.27

Cc1nc(-c2cn3c(n2)-c2ccc(-c4cnn(C(C)(C)C(N)=O)c4)cc2OCC3)n(C(C)C)n1 [taselisib]
CTG-3D luminescence at 96 h
Conditions	12.5 pM	0.00025 µM	0.005 µM	0.1 µM	1 µM	10 µM	100 µM	625 fM
[1], days in culture: 111	1.53	1.41	1.4	0.966	0.707	0.842	0.0187	1.35
[1], days in culture: 128	1.9392 ± 0.00075	1.52 ± 0.045	1.88 ± 0.15	1.68 ± 0.46	1.2 ± 0.14	1.18 ± 0.18	0.33 ± 0.041	1.86 ± 0.12
[3], days in culture: 85	3.03	2.91	1.97	0.848	0.668	0.194	0.166	2.38
[4], days in culture: 62	2.78	2.75	2.69	2.06	1.75	1.12	0.0194	3.01
[4], days in culture: 82	2.76	2.9	2.23	2.39	1.79	1.08	0.0159	3.2
[4], days in culture: 91	3.66	3.28	2.4	2.4	1.64	1.32	0.0254	3.59
[4], days in culture: 191	2.84	2.45	2.55	2.13	2.1	0.981	0.137	2.84
[4], days in culture: 209	2.15	2.3	2.09	1.75	1.5	0.726	0.0139	2.45
[4], days in culture: 227	4.99	5.28	4.54	3.54	2.79	1.69	0.0558	5.91
[5], days in culture: 172	3.15	1.96	3.8	1.36	0.93	0.235	0.0865	1.92
[5], days in culture: 209	1.6	2.39	1.79	1.16	0.455	0.267	0.0164	1.64
[5], days in culture: 218	1.42	1.87	1.83	0.886	0.193	0.296	0.0322	1.54
[6], days in culture: 172	2.38	1.78	2.27	1.48	1.4	0.489	0.178	3.06
[6], days in culture: 191	2.01	1.36	1.67	0.905	1.12	0.541	0.0414	1.56
[6], days in culture: 218	2.32	1.88	1.69	1.55	0.988	0.617	0.0074	2.08

CTG-3D luminescence at 96 h
Conditions	12.5 pM	0.00025 µM	0.005 µM	0.1 µM	1 µM	10 µM	100 µM	625 fM
[2]	4.54 ± 1.3	4.45 ± 1.4	4.53 ± 1.4	4.29 ± 1.2	3.9 ± 1.2	2.97 ± 0.77	1.22 ± 0.48	4.58 ± 1.3
[3]	1.88 ± 0.22	1.78 ± 0.1	1.32 ± 0.35	0.638 ± 0.002	0.448 ± 0.083	0.204 ± 0.082	0.178 ± 0.052	2.06 ± 0.017
